How the values were obtained:
HL-60 cells = test: Cellular metabolism of tritium-labeled compounds (TLC); assay type: cell-based, human; details: HL-60, 5 μM, TLC
Description: (§1) Metabolism studies. Lipids from cells treated with ^3 H-labeled compounds were extracted (Bligh & Dyer method), dried, resuspended in chloroform/methnol (10:1, v/v), and subjected to separation by TLC in chloroform/methanol (4:1, v/v). Spots containing radioactive compounds were scraped and radioactivity was measured using a scintillation counter.
(§2) Next, the metabolism of D- and L-e-MAPP was evaluated. To this end, organic lipids were extracted from cells treated with 5 μM D- or L-e-MAPP at the indicated time points (FIG. 5D), and lipids were resolved on TLC. […] On the other hand, L-e-MAPP underwent significant metabolism in a time-dependent fashion such that by 24 h, more than 70% of the L-e-MAPP taken up by cells was metabolized (FIG. 5, D and E). Two major breakdown products of L-e-MAPP were resolved by TLC. One metabolite co-migrated with […] and not with other neutral or polar lipids. The other metabolite (upper spot in FIG. 5D) comigrated with triacylglycerol.

[1] = tested on: endogenous ceramide levels in HL-60 cells; test: cells; details: Homo sapiens, HL-60, 24 h, read-out: endogenous ceramide level relative to baseline
Description: Ceramide and diacylglycerol levels were measured on total liquid extracts using the diacylglycerol kinase assay (Jayadev et al, J. Biol. Chem. 270:2047 (1995)).
Therefore, HL-60 cells were treated with 5 μM D-e-MAPP, ethanol vehicle or L-e-MAPP for 0-24 h. At the indicated time points (FIG. 4A), total lipids were extracted and endogenous ceramide levels were measured by the Escherichia coli diacylglycerol kinase assay.
The upper spot of ceramide phosphate co-migrated with synthetic D-erythro-C18 dihydroceramide phosphate whereas the lower spot co-migrated with D-erythro-C18 ceramide phosphate.

acid ceramidase = biological target: T1, acid ceramidase (Homo sapiens, UniProt Q13510); test: Acid ceramidase activity in vitro at pH 4.5; assay type: biochemical; design: Ceramidase activity was determined from total homogenates of HL-60 cells; endogenous in cells; host or cells: HL-60 cells; details: 50 μM
T1 sequence (Q13510 22-395): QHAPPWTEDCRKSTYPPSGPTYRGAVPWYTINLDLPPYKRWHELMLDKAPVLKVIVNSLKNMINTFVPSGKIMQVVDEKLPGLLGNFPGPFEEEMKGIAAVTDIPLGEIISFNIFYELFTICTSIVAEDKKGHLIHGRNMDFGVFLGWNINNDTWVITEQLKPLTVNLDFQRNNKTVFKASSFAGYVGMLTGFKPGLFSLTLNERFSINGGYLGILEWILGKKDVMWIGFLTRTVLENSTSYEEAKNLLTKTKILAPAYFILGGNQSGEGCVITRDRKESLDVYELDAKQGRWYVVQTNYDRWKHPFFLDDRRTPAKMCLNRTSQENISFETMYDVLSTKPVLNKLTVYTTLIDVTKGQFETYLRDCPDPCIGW
Description: Measurement of ceramidase activity in HL-60 cells. Ceramidase activity in HL-60 cells was measured by a modification of the method of Gatt and Yavin (Methods Enzymol. 14:139 (1969)). Cells were disrupted by sonication in 0.25M sucrose, 1 mM EDTA, and centrifuged at 10,000×g for 10 min after which the supernatant was centrifuged at 100,000×g for 60 min. Ten μl of 1 mM ceramide substrate ([^3 H]C16 -ceramide) was mixed with 100 μl of Triton X-100 (0.1%) in chloroform/methanol, 2:1, and 100 μl of 0.2% sodium cholate in chloroform/methanol, 2:1, after which the solvent was evaporated under N2 at 70° C. To this mixture, 30 μl of water was added and the tubes were heated for 5 s in an 80° C. water bath and then put on ice. Fifty μl of the appropriate buffer depending on desired pH was added followed by 20 μl of 50 mM MgCl2 and 100 μl of cell extract. In experiments using inhibitors, the desired inhibitor was added in ethanol either with the substrate or directly to the final solution. The reaction mixture was incubated for 1 h at 37° C. The ^3 H-fatty acid products of ceramidase were separated by the addition of 2 ml of Dole's solution (isopropyl alcohol, heptane, NaOH), 1.2 ml of heptane, and 1 ml of water. After vortexing and centrifugation, the upper phase was discarded and the lower phase was washed twice with heptane and the upper phase discarded each time. […]

[2] = Cellular metabolism of tritium-labeled compounds (TLC); assay type: cell-based, human; details: human, hl-60 cells; HL-60, 5 μM, by 24 h; read-out: fraction of compound taken up that was metabolized
Description: as §1, §2

Row | Compound | metabolism in cells (HL-60 cells) | fold induction at 5 µM [1] | inhibition at 50 µM (acid ceramidase) [%] | metabolised at 24 h, 5 µM [2] [%]
1 | CCCCCCCCCCCCCC(=O)N[C@H](C)[C@@H](O)c1ccccc1 [D-e-MAPP, D-erythro-2-(N-myristolyamino)-1-phenyl-1-propanol] | showed little metabolism and remained intact | ~3 | < 10 | 
2 | CCCCCCCCCCCCCC(=O)N[C@@H](C)[C@H](O)c1ccccc1 [L-e-MAPP, L-erythro-2-(N-myristolyamino)-1-phenyl-1-propanol] |  |  |  | > 70
